# Where a name gives a salt, the structure may show the parent alone. Read-outs that look alike come from different tables or passages of the source.
# Target: T1, GPR6 receptor (Homo sapiens, UniProt P46095)
# T1 construct: expressed in transfected cells
# Experiment: Inhibition of cAMP Activity of GPR6 In Vitro Assay (CHO-K1 cells, HTRF cAMP)
# Assay type: cell-based
# Conditions: inhibition of constitutive cAMP activity of GPR6 expressed in CHO-K1 cells, approximate IC50, read-out: IC50
# Protocol: Inhibition of cAMP Activity of GPR6 In Vitro Assay
# This cell based assay measures the ability of compounds to inhibit the constitutive cAMP activity of GPR6 receptor expressed in CHO-K1 cells. CHO cells were stably expressed with GPR6 receptor, whose expression is controlled by a tetracycline inducable element. The cells were cultured in medium containing F12K, 10% FBS, 1% Penn/Strep, 200 ug/mL Hygromycin. GPR6 receptor expression was induced for 20 hrs with 1 μg/ml doxycycline (sigma D9891) in growth media. After addition of doxycycline cells were plated at a density of 250-500 cells per well in half-volume black clear bottom plates (Costar) and place in an incubator (37°, 5% C(O)2) for 20 hours prior to cAMP assays.
# Culture media was removed from cells and they were washed with 50 μL of Ringer's Buffer (MgCl2 0.047 mg/mL, NaH2PO4 0.18 mg/mL, Na2HPO4 0.1 mg/mL, KCl 0.34 mg/mL, NaHC(O)3 1.26 mg/mL, D-glucose 1.8 mg/mL, NaCl 7 mg/mL; pH=7.4). Compounds suspended in DMSO were diluted in Ringer's Buffer containing 0.5% fatty acid free BSA and incubated on cells for 45 min at […] and 5% C(O)2. After incubation cells were incubated for 10 min at room temp with Eu-cAMP tracer solution from a Perkin Elmer Lance HTRF UltracAMP assay kit (TRF0264). Then ULight™-anti-cAMP solution from the Lance HTRF kit was added and incubated on a shaker at room temp for 1 hour prior to HTRF detection in a BMG PolarStar Omega.
# IC50 curves were generated with a four-parameter logistic equation using GraphPad Prism 5.03.
# T1 sequence (P46095 whole entry): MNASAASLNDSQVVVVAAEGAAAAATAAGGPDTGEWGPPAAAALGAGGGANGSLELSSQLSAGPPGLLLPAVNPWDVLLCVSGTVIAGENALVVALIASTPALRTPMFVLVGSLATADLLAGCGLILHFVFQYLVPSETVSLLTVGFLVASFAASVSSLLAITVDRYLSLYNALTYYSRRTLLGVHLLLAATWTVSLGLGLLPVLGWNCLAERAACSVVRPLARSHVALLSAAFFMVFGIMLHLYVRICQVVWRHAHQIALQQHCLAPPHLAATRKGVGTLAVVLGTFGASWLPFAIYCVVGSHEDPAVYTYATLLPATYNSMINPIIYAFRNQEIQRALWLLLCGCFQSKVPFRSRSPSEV
IC50 (compounds of Compound Table 2) [nM],Compound,IC50 (compounds of Compound Table 1) [nM]
–,"(2-chloro-6-fluorophenyl)(1-(2-(cyclopropylamino)pyrido[3,4-b]pyrazin-3-yl)piperidin-4-yl)methanone [Cpd 575]",6750
–,"N#Cc1cccc(CN2CCN(c3nc4ccccc4nc3NC3CC3)CC2)c1 [Cpd 95, 3-((4-(3-(cyclopropylamino)quinoxalin-2-yl)piperazin-1-yl)methyl)benzonitrile, 2,2,2-trifluoroacetic acid salt]",22200
–,"3-(4-(2,4-difluorobenzyl)piperazin-1-yl)-N-isopropylpyrazino[2,3-d]pyridazin-2-amine 2,2,2-trifluoroacetate [Cpd 650]",1000
–,"COc1ccc(Nc2nc3ccccc3nc2N2CCN(Cc3cccc(Cl)c3)CC2)cc1 [Cpd 31, 3-(4-(3-chlorobenzyl)piperazin-1-yl)-N-(4-methoxyphenyl)quinoxalin-2-amine, 2,2,2-trifluoroacetic acid salt]",6140
–,"(4-chloro-2-fluorophenyl)(1-(2-(cyclopropylamino)pyrido[3,4-b]pyrazin-3-yl)piperidin-4-yl)methanone, 2,2,2-trifluoroacetic acid salt [Cpd 447]",35
–,"2-((2,2-difluoroethyl)amino)-3-(4-(2,4-difluorophenoxy)piperidin-1-yl)-N,N-dimethylpyrido[3,4-b]pyrazine-7-carboxamide, 2,2,2-trifluoroacetic acid salt [Cpd 649]",44
–,"3-(4-((5-chloro-2-fluorophenyl)difluoromethyl)piperidin-1-yl)-N-cyclopropyl-5-methylpyrido[3,4-b]pyrazin-2-amine [Cpd 536]",930
–,"3-(4-(4-chloro-2-fluorophenoxy)piperidin-1-yl)-2-(cyclopropylamino)quinoxaline-6-carbonitrile, 2,2,2-trifluoroacetic acid salt [Cpd 465]",11
–,"(2-(cyclopropylamino)-3-(4-(2,4-difluorobenzyl)piperazin-1-yl)pyrido[3,4-b]pyrazin-7-yl)(morpholino)methanone, 2,2,2-trifluoroacetic acid salt [Cpd 611]",44
–,"N-cyclopropyl-3-(4-(3-isopropylbenzyl)piperazin-1-yl)quinoxalin-2-amine, 2,2,2-trifluoroacetic acid salt [Cpd 211]",9440
6640,"CC1CN(Cc2cc(Cl)ccc2Cl)CCN1c1nc2ccccc2nc1NC1CC1 (stereo not shown) [Compound Table 2: Cpd 7, N-cyclopropyl-3-(4-(2,5-dichlorobenzyl)-2-methylpiperazin-1-yl)quinoxalin-2-amine]",–
–,"3-(4-(2,5-difluorobenzoyl)piperidin-1-yl)-2-(isopropylamino)-N,N-dimethylpyrido[3,4-b]pyrazine-7-carboxamide, 2,2,2-trifluoroacetic acid salt [Cpd 635]",40
–,"3-(4-(2,4-difluorophenoxy)piperidin-1-yl)-N-(2-methoxyethyl)pyrido[3,4-b]pyrazin-2-amine, 2,2,2-trifluoroacetic acid salt [Cpd 525]",29
–,"Clc1ccc(Cl)c(CN2CCN(c3nc4ccc(Br)cc4nc3NC3CC3)CC2)c1 [Cpd 45, 7-bromo-N-cyclopropyl-3-(4-(2,5-dichlorobenzyl)piperazin-1-yl)quinoxalin-2-amine, 2,2,2-trifluoroacetic acid salt]",2340
–,"6-bromo-N-cyclopropyl-3-(4-(2,4-difluorobenzyl)piperidin-1-yl)quinoxalin-2-amine, 2,2,2-trifluoroacetic acid salt [Cpd 495]",18
–,"COc1ccc(OC2CCN(c3nc4c(C(=O)N(C)C)nccc4nc3NC3CC3)CC2)c(F)c1 [Cpd 604, 2-(cyclopropylamino)-3-(4-(2-fluoro-4-methoxyphenoxy)piperidin-1-yl)-N,N-dimethylpyrido[3,4-b]pyrazine-5-carboxamide]",54

IC50 (compounds of Compound Table 2) [nM],Compound,IC50 (compounds of Compound Table 1) [nM]
–,"3-(4-(4-chloro-3-methylbenzyl)piperazin-1-yl)-N-cyclopropylquinoxalin-2-amine, 2,2,2-trifluoroacetic acid salt [Cpd 194]",3640
–,"(1-(2-(cyclopropylamino)pyrido[3,4-b]pyrazin-3-yl)piperidin-4-yl)(2-fluoro-5-(methylthio)phenyl)methanone, 2,2,2-trifluoroacetic acid salt [Cpd 593]",23
–,"3-(4-(2-fluoro-4-methoxyphenoxy)piperidin-1-yl)-2-(isopropylamino)pyrido[3,4-b]pyrazine-7-carbonitrile, 2,2,2-trifluoroacetic acid salt [Cpd 628]",276
–,"(S)-2-(cyclopropylamino)-3-(4-((2,4-difluorophenyl)fluoromethyl)piperidin-1-yl)-N,N-dimethylpyrido[3,4-b]pyrazine-7-carboxamide, 2,2,2-trifluoroacetic acid salt [Cpd 576]",2880
–,"(6-chloro-2,3-difluorophenyl)(1-(2-(cyclopropylamino)pyrido[3,4-b]pyrazin-3-yl)piperidin-4-yl)methanone, 2,2,2-trifluoroacetic acid salt [Cpd 569]",62
–,"Cc1ccc(Nc2nc3ccccc3nc2N2CCN(Cc3cccc(Cl)c3)CC2)cc1 [Cpd 30, 3-(4-(3-chlorobenzyl)piperazin-1-yl)-N-(p-tolyl)quinoxalin-2-amine, 2,2,2-trifluoroacetic acid salt]",26200
–,"3-(4-(2,4-difluorophenoxy)piperidin-1-yl)-N-isopropylpyrido[3,4-b]pyrazin-2-amine, 2,2,2-trifluoroacetic acid salt [Cpd 620]",18
–,"7-chloro-N-cyclopropyl-3-(4-(2,4-difluorobenzyl)piperidin-1-yl)pyrido[3,4-b]pyrazin-2-amine [Cpd 592]",26
–,"3-(4-(2-fluoro-4-methoxybenzyl)piperidin-1-yl)-2-(isopropylamino)pyrido[3,4-b]pyrazine-7-carbonitrile, 2,2,2-trifluoroacetic acid salt [Cpd 636]",16
–,"3-(4-(3-chloro-4-fluorobenzyl)piperazin-1-yl)-N-cyclopropylpyrido[3,4-b]pyrazin-2-amine, 2,2,2-trifluoroacetic acid salt [Cpd 315]",50
–,"(3-bromo-4-methylphenyl)(4-(3-(cyclopropylamino)quinoxalin-2-yl)piperazin-1-yl)methanone, 2,2,2-trifluoroacetic acid salt [Cpd 154]",720
–,"(S)—N-cyclopropyl-3-(4-((2,4-difluorophenyl)fluoromethyl)piperidin-1-yl)-5-methylpyrido[3,4-b]pyrazin-2-amine, 2,2,2-trifluoroacetic acid salt [Cpd 516]",29
–,N#Cc1ccc2nc(NC3CC3)c(N3CCC(C(F)c4cc(F)ccc4F)CC3)nc2c1 (stereo not shown) [Cpd 471],75
–,"3-(4-(3-chlorophenoxy)piperidin-1-yl)-N-cyclopropylpyrido[3,4-b]pyrazin-2-amine, 2,2,2-trifluoroacetic acid salt [Cpd 426]",27
–,"3-(1-(7-bromo-2-(cyclopropylamino)pyrido[3,4-b]pyrazin-3-yl)piperidine-4-carbonyl)-4-fluorobenzonitrile [Cpd 602]",146

# From patent US9770452B2, “Quinoxaline derivatives as GPR6 modulators” (Takeda Pharmaceutical Company Limited, priority 2012, dated 2017)
